The structures appear in SMILES notation.

T1 sequence (Q9Y5N1 with tags, fused parts or gaps): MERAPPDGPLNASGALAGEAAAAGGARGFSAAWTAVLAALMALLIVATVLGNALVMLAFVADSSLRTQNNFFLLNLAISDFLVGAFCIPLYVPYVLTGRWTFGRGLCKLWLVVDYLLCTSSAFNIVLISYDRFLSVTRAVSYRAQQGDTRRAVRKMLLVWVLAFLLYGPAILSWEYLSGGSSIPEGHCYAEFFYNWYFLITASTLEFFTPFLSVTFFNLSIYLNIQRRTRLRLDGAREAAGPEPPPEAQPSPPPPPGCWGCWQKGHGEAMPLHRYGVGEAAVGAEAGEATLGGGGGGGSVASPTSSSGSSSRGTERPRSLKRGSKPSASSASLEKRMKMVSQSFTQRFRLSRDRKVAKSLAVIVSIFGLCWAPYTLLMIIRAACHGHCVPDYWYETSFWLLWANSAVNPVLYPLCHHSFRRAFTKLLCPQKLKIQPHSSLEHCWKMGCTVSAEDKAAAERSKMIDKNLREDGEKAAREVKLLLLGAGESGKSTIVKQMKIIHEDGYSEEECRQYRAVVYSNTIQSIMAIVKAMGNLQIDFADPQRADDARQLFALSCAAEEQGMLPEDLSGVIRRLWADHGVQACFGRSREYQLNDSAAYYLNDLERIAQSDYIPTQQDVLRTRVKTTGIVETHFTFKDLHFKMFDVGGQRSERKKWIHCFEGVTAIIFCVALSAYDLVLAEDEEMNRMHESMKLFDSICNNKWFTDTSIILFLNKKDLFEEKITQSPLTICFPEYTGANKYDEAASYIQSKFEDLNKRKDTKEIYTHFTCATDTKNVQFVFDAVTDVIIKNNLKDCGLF

The first assay has as its target T1, chimeric human H3 receptor (Homo sapiens, UniProt Q9Y5N1).
T1 construct: made in house; host or cells: Sf9 insect cells (baculovirus); P2 membrane preparation
Nature of the assay: Chimeric human H3 receptor screening GTP binding assay (inhibition of histamine-stimulated GTP-gamma35S binding, Example 8). In kind it is biochemical. The note with it: 4 μM of the compound, 1 μM histamine, "†" in Ki of Table II, read-out: percent inhibition of the signal obtained with 1 μM histamine. Summed up: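 Sf9 membranes co-expressing chimeric human H3 receptor and heterotrimeric G-protein, 35 μg per reaction, incubated 60 min at room temperature with 4 μM compound, 1 μM histamine, 10 μM GDP and […] GTP-gamma35S at pH 7.4. Filter-bound radioactivity counted. Result expressed as percent inhibition of the histamine signal after subtracting non-specific binding (10 μM GTP-gammaS).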
For orientation: GTPγS is a poorly hydrolysed GTP analogue; its binding reports G protein activation.
On to `O=C(CN1CCc2cc(-c3cccc(F)c3)ccc2C1)N1CCN(C2CCCC2)CC1` [Compound 411, 2-[2-(4-cyclopentylpiperazin-1-yl)-2-oxoethyl]-6-(3-fluorophenyl)-1,2,3,4-tetrahydroisoquinoline], for which the inhibition at 4 µM is not below 90%.
Turning to `CC(C)c1ccc(-c2ccc3c(c2)CCN(CC(=O)N2CCN(C4CCC4)CC2)C3)cc1` [Compound 443, 2-[2-(4-cyclobutylpiperazin-1-yl)-2-oxoethyl]-6-(4-isopropylphenyl)-1,2,3,4-tetrahydroisoquinoline], the inhibition at 4 µM was not below 90%.
Same read-out and setting: the figure for `O=C(CN1CCc2cc(-c3ccc(F)cc3)ccc2C1)N1CCN(C2CCC2)CC1` [Compound 407, 2-[2-(4-cyclobutylpiperazin-1-yl)-2-oxoethyl]-6-(4-fluorophenyl)-1,2,3,4-tetrahydroisoquinoline] is not below 90%; for `Cc1cc(-c2ccc3c(c2)CCN(CC(=O)N2CCN(C4CCC4)CC2)C3)ccc1F` [Compound 429, 2-[2-(4-cyclobutylpiperazin-1-yl)-2-oxoethyl]-6-(4-fluoro-3-methylphenyl)-1,2,3,4-tetrahydroisoquinoline] it is not below 90%; for `CC(C)N1CCN(C(=O)CN2CCc3cc(-c4ccc5c(c4)OCCO5)ccc3C2)CC1` [Compound 385, 6-(2,3-dihydro-1,4-benzodioxin-6-yl)-2-[2-(4-isopropylpiperazin-1-yl)-2-oxoethyl]-1,2,3,4-tetrahydroisoquinoline] it is not below 90%.
The same measure, in the same setting: the value for `CCc1cccc(-c2ccc3c(c2)CCN(CC(=O)N2CCN(C(C)C)CC2)C3)c1` [Compound 470, 6-(3-ethylphenyl)-2-[2-(4-isopropylpiperazin-1-yl)-2-oxoethyl]-1,2,3,4-tetrahydroisoquinoline] was not below 90%.
Still for that read-out and setting: the figure for `CCc1ccc(-c2ccc3c(c2)CCN(CC(=O)N2CCN(C4CCCC4)CC2)C3)cc1` [Compound 460, 2-[2-(4-cyclopentylpiperazin-1-yl)-2-oxoethyl]-6-(4-ethylphenyl)-1,2,3,4-tetrahydroisoquinoline] is not below 90%.
Take `CC(C)(C)c1ccc(-c2ccc3c(c2)CCN(CC(=O)N2CCN(C4CCCCC4)CC2)C3)cc1` [Compound 473, 6-(4-tert-butylphenyl)-2-[2-(4-cyclohexylpiperazin-1-yl)-2-oxoethyl]-1,2,3,4-tetrahydroisoquinoline]: the inhibition at 4 µM is not below 90%.
Still for that read-out and setting: the value for `COc1cccc(-c2ccc3c(c2)CCN(CC(=O)N2CCN(C4CCCCC4)CC2)C3)c1` [Compound 477, 2-[2-(4-cyclohexylpiperazin-1-yl)-2-oxoethyl]-6-(3-methoxyphenyl)-1,2,3,4-tetrahydroisoquinoline] was not below 90%; that for `Cc1cccc(-c2ccc3c(c2)CCN(CC(=O)N2CCN(C4CCC4)CC2)C3)c1` [Compound 432, 2-[2-(4-cyclobutylpiperazin-1-yl)-2-oxoethyl]-6-(3-methylphenyl)-1,2,3,4-tetrahydroisoquinoline] was not below 90%.
On the same count and under the same terms, the figure for `Cc1ccc(-c2ccc3c(c2)CCN(CC(=O)N2CCN(C4CCC4)CC2)C3)cc1F` [Compound 426, 2-[2-(4-cyclobutylpiperazin-1-yl)-2-oxoethyl]-6-(3-fluoro-4-methylphenyl)-1,2,3,4-tetrahydroisoquinoline] is not below 90%.
For the molecule `CC(C)N1CCN(C(=O)CN2CCc3cc(-c4ccc(C(C)(C)C)cc4)ccc3C2)CC1` [Compound 474, 6-(4-tert-butylphenyl)-2-[2-(4-isopropylpiperazin-1-yl)-2-oxoethyl]-1,2,3,4-tetrahydroisoquinoline], the inhibition at 4 µM was not below 90%.

The assay is the same for the next values; noted with them: Table II "Ki", symbol †, 4 μM of the compound, 1 μM histamine, read-out: percent inhibition of the signal obtained with 1 μM histamine.
Regarding `COc1ccc(-c2ccc(-c3ccc4c(c3)CCN(CC(=O)N3CCN(C(C)C)CC3)C4)cc2)cc1` [Compound 501, 2-[2-(4-isopropylpiperazin-1-yl)-2-oxoethyl]-6-(4′-methoxybiphenyl-4-yl)-1,2,3,4-tetrahydroisoquinoline], the inhibition at 4 µM is not below 90%.
For `COCC(C)Nc1ccc2c(n1)CCN(CC(=O)N1CCN(C3CCC3)CC1)C2` (stereo not shown) [Compound 665, 6-[2-(4-cyclobutylpiperazin-1-yl)-2-oxoethyl]-N-(2-methoxy-1-methylethyl)-5,6,7,8-tetrahydro-1,6-naphthyridin-2-amine], the inhibition at 4 µM was not below 90%.
As for `COc1ccc(-c2ccc3c(c2)CCN(CC(=O)N2CCN(C4CCC4)CC2)C3)c(OC)c1` [Compound 563, 2-[2-(4-cyclobutylpiperazin-1-yl)-2-oxoethyl]-6-(2,4-dimethoxyphenyl)-1,2,3,4-tetrahydroisoquinoline], the inhibition at 4 µM is not below 90%.
In the case of `COC1CCCCC1N1C[C@@H]2C[C@H]1CN2C(=O)CN1CCc2cc(-c3cncnc3)ccc2C1` (stereo in doubt) [Compound 620, 2-{2-[(1S,4S)-5-(2-methoxycyclohexyl)-2,5-diazabicyclo[2.2.1]hept-2-yl]-2-oxoethyl}-6-pyrimidin-5-yl-1,2,3,4-tetrahydroisoquinoline], the inhibition at 4 µM is not below 90%.
On the same count and under the same terms, the value for `COc1ccc(-c2ccc3c(c2)CCN(CC(=O)N2CCN(C(C)C)CC2)C3)cc1F` [Compound 505, 6-(3-fluoro-4-methoxyphenyl)-2-[2-(4-isopropylpiperazin-1-yl)-2-oxoethyl]-1,2,3,4-tetrahydroisoquinoline] was not below 90%; that for `COc1ccc(OC)c(-c2ccc3c(c2)CCN(CC(=O)N2CCN(C(C)C)CC2)C3)c1` [Compound 562, 6-(2,5-dimethoxyphenyl)-2-[2-(4-isopropylpiperazin-1-yl)-2-oxoethyl]-1,2,3,4-tetrahydroisoquinoline] was not below 90%.
Still for that read-out and setting: the figure for `O=C(CN1CCc2cc(-c3ccc(Oc4ccccc4)cc3)ccc2C1)N1CCN(C2CCCCC2)CC1` [Compound 488, 2-[2-(4-cyclohexylpiperazin-1-yl)-2-oxoethyl]-6-(4-phenoxyphenyl)-1,2,3,4-tetrahydroisoquinoline] is not below 90%.
As for `CC(C)OCCNc1ccc2c(n1)CCN(CC(=O)N1CCN(C3CCC3)CC1)C2` [Compound 668, 6-[2-(4-cyclobutylpiperazin-1-yl)-2-oxoethyl]-N-(2-isopropoxyethyl)-5,6,7,8-tetrahydro-1,6-naphthyridin-2-amine], the inhibition at 4 µM is not below 90%.
Same read-out and setting: the value for `O=C(CN1CCc2cc(-c3cncnc3)ccc2C1)N1C[C@@H]2C[C@H]1CN2C1CCCC1` (stereo in doubt) [Compound 612, 2-{2-[(1S,4S)-5-cyclopentyl-2,5-diazabicyclo[2.2.1]hept-2-yl]-2-oxoethyl}-6-pyrimidin-5-yl-1,2,3,4-tetrahydroisoquinoline] was not below 90%; that for `O=C(CN1CCc2cc(-c3ccc(F)c(Cl)c3)ccc2C1)N1CCN(C2CCCCC2)CC1` [Compound 581, 6-(3-chloro-4-fluorophenyl)-2-[2-(4-cyclohexylpiperazin-1-yl)-2-oxoethyl]-1,2,3,4-tetrahydroisoquinoline] was not below 90%; that for `COc1ccc(OC)c(-c2ccc3c(c2)CCN(CC(=O)N2CCN(C4CCCC4)CC2)C3)c1` [Compound 560, 2-[2-(4-cyclopentylpiperazin-1-yl)-2-oxoethyl]-6-(2,5-dimethoxyphenyl)-1,2,3,4-tetrahydroisoquinoline] was not below 90%.
With `CC(C)Oc1cccc(-c2ccc3c(c2)CCN(CC(=O)N2CCN(C(C)C)CC2)C3)c1` [Compound 515, 6-(3-isopropoxyphenyl)-2-[2-(4-isopropylpiperazin-1-yl)-2-oxoethyl]-1,2,3,4-tetrahydroisoquinoline], the inhibition at 4 µM is not below 90%.
As to `COc1ccc(OC)c(-c2ccc3c(c2)CCN(CC(=O)N2CCN(C4CCC4)CC2)C3)c1` [Compound 559, 2-[2-(4-cyclobutylpiperazin-1-yl)-2-oxoethyl]-6-(2,5-dimethoxyphenyl)-1,2,3,4-tetrahydroisoquinoline], the inhibition at 4 µM was not below 90%.

In general, inhibition refers to the share of the control response that was lost under treatment.

(Values after patent US20110082130A1 (LIGAND PHARMACEUTICALS, INC., priority 2006, published 2011).)
